Assay [1] relates to DSS-induced IBD model in female Balb/c mice. Nature of the assay: DSS-induced IBD model: body weight, DAI score, colon length and weight. In kind it is in vivo. Particulars: for DAI score: lobeglitazone groups (0.36, 1.20, 3.61 mg/kg PO QD). On the procedure:
The purpose of this study was to test the efficacy of compound lobeglitazone in the DSS-induced IBD model in female Balb/c mice following oral administration. The study was conducted at an AAALAC accredited facility, and all animal study procedures were approved by the Institutional Animal Care and Use Committee (IACUC).
Precise amount of lobeglitazone sulfate (lot: EW34258-13-P1; purity: 97.6%) was weighted out into a clean tube, 0.5% CMC was added and vortexed fully, then sonicated 2-3 minutes to get an even suspension. The concentration of the solution was 0.361 mg/ml, 0.120 mg/mL, and 0.036 mg/mL. The dosing solution was freshly made daily until the end of the study. The compound was orally (PO), 10 mL/kg daily dosed for 10 days.
Totally 125.82 mg cyclosporin A (CSA, purity 98%) was weighed out into a clean tube, 2.055 mL castor oil was added firstly, then 39.046 mL […] (with 0.1% tween80) was added, vortexed fully, then sonicated 10 min to get a clear solution. The concentration of the solution was 3 mg/mL. The compound was PO, 10 mL/kg daily dosed for 10 days.
5% DSS preparation: […] DSS powder was weighted out into a clean bottle, 1 L Milli Q water was added subsequently, the solution was stirred until it was clear. Then 5% DSS was transferred to water bottle of the animal. 5% DSS was freshly made daily until the end of the study.
A total of 50 (7 weeks old) female Balb/c were purchased from Beijing Vital River Laboratory Animal Technology Co., Ltd. Animals were acclimatized for 1 week prior to the experiment. All the in vivo experimental procedures were approved by the institutional animal care and use committee (IACUC). All euthanasia was performed using carbon dioxide inhalation and all efforts were made to minimize animal suffering.
At the beginning of the study, randomization was performed based on body weight. All animals were randomly assigned to one of six groups (Table 1). The study schedule is described in FIG. 1.
DAI score was calculated by the sum of weight loss score, stool consistency score, and occult-gross bleeding score. Body weight loss was calculated by comparison with the body weight on day 1. Feces samples were collected from each individual animal, and stool consistency and occult-gross bleeding were evaluated according to Table 2. Stool Consistency was evaluated by the appearance of the feces. Occult-gross bleeding was evaluated using Fecal Occult Blood test strips. Occult bleeding score of 1 will be assigned if light or dark purple color developed within 20 seconds and longer than 15 seconds. Occult bleeding score of 2 was assigned if light or dark purple color developed within 15 seconds. Occult-gross bleeding score of 3 would be assigned if blood was visible in the feces.
Animals were euthanized by CO2 at the end of study. Colon length and colon weight (cecum is not included) were recorded, and macroscopic changes were scored based on Table 2. The colon was cleaned using saline, and all feces were removed before weight measurement. The middle part of colon was collected in cassette and fixed in 10% neutral buffered formalin (NBF) for H&E and PAS staining. For left colon, mucosal from colon surface was removed and then snap frozen in liquid nitrogen and store at −80° C. for QT-PCR analysis of TNF-α, IL-10, CCL2, and IL-1β. QT-PCR primers were purchased from Sangon Biotech Co., Ltd.
(§1) In vivo animal data were presented as mean±SEM. Statistical analysis was performed by one-way ANOVA followed by Dunnett's multiple comparison. […] The difference was considered significance when p<0.05.

For assay [2], the system named is colon of DSS-induced IBD model mice. The assay is described as follows: Colon histology (H&E score, PAS goblet cells) in the DSS-induced IBD model. In kind it is in vivo. The note with it: vs model. The procedure:
H&E staining: Colon sections were cut at 4 μm in thickness, dried in an oven for 1 hour and stained with H&E solution with our standard protocol. Briefly, the sections were stained with hematoxylin solution for 90 seconds. Then stain in eosin solution for 30 seconds. Then dehydrated and coverslipped for the subsequent image analysis. H&E stained images was scanned using LEICA Aperio® GT450. The severity of inflammatory cell infiltration and tissue damage were semi-quantitatively evaluated according to pathology score criteria in Table 7.
PAS staining: Colon sections were cut at 4 μm in thickness, dried in an oven for 1 hour and stained with PAS kit (Gefan #M035) with our standard protocol. Briefly, the sections were stained with periodic acid working solution for 8 minutes. Then wash with distilled water for 5 minutes, three times. Stain in Schiff solution for 10 minutes. Transform to distilled water for 5 minutes, three times. Then dehydrated and coverslipped for the subsequent image analysis.
The total length of the colon was measured by a ruler and then was divided into 3 segments, 100 microns in the middle of each segment was taken out for goblet cell calculation. In each 100 microns of colon tissue, the number of goblet cells was calculated, then the average number of goblet cells from three parts was used for next analysis.
as §1

Assay [3] deals with monocytes from PBMC, M1-to-M2 macrophage repolarization. The assay is described as follows: M1-to-M2 macrophage repolarization assay. In kind it is cell-based, human. From the text: The purpose of this study was to evaluate the effects of lobeglitazone and other thiazolidinediones on M1-to-M2 macrophage repolarization. The test articles and vehicles used in this study were lobeglitazone sulfate, pioglitazone HCl, and rosiglitazone.
M1-to-M2 macrophage repolarization assay timeline were as follows in Table 13.
Drug concentrations tested in the M1 differentiation assay are as in Table 14.
• (1) Isolate monocytes from PBMC using StemCell® monocyte isolation kit. • (2) Count cell and adjust the cell density to 0.5×10^6 cells/ml with fresh complete differentiation medium (add 10 μl M-CSF stock (100 μg/ml) 10 ml cell mixture to a final concentration of 50 ng/ml). • (3) Seed isolated monocyte 100 μL per well on 96-well plate. • (4) On day 4, add additional 100 μl medium containing M-CSF • (5) On day 6, add stimulator at 5× final concentration (200 μL medium in each well) to a final concentration of 50 ng/ml. • (6) On day 8, remove medium and replenish with 200 μL cytokine free medium, then add test compound (final concentration in μM) and incubate for 4 days. • (7) On day 12, add IL-4 and incubate for 2 days (add 50 μL of 100 ng/ml IL-4 to each well containing 200 μL medium to reach 20 ng/ml). • (8) On day 14, spin down the plates at 300×g for 5 min and collect the supernatant for cytokine quantification. • (9) M1 and M2 associated macrophage cytokines of interest are as follows in Table 15.
The cells are then collected for flow analysis of viability/CD11c/CD163/CD206.
Cell surface marker CD163, CD11c, and CD206 were applied to characterize M2 repolarization via flow cytometry. Controls included No stain and staining with all surface marker antibodies to confirm the optimization of gating strategy.

The mark [4] stands for this setting: lobeglitazone groups (0.36, 1.20, 3.61 mg/kg PO QD 10 days), vs control group.

In the case of `COc1ccc(Oc2cc(N(C)CCOc3ccc(CC4SC(=O)NC4=O)cc3)ncn2)cc1` (stereo not shown) [lobeglitazone, 5-(4-(2-((6-(4-Methoxyphenoxy)pyrimidin-4-yl)(methyl)amino)ethoxy)benzyl)thiazolidine-2,4-dione], the body weight changes result was “no significant body weight changes” in assay [1] (0.36 mg/kg PO QD, vs control group); “no significant body weight changes” in assay [1] (1.20 mg/kg PO QD, vs control group); “significantly reduced” in assay [1] (3.61 mg/kg PO QD, day 2, vs control (no drug) group). In addition, the colon length result in assay [1] (setting [4]) was “did not significantly increase”. Also, the colon length/weight ratio entry in assay [1] (setting [4]) is “did not significantly decrease”. Moreover, the colon weight result in assay [1] (setting [4]) is reported as “did not significantly change”. The DAI score entry is “did not significantly reduce” in assay [1] (vs control group) and “did not significantly decrease” in assay [1] (vs control group, listed as Lobeglitazone). The “H&E total score (inflammation/tissue damage)” value in assay [2] (0.36 mg/kg PO QD 10 days), in assay [2] (1.20 mg/kg PO QD 10 days) and in assay [2] (3.61 mg/kg PO QD 10 days) was “led to decrease” each time. The figures for the “number of goblet cells (PAS staining)” value in assay [2] (0.36 mg/kg PO QD 10 days), in assay [2] (1.20 mg/kg PO QD 10 days) and in assay [2] (3.61 mg/kg PO QD 10 days) were “trended to increase”, “trended to increase” and “did not change”, respectively. Moreover, in assay [3] (CD163, CD11c, CD206, lowest concentration with effect), the “concentration at which M1-to-M2 repolarization was promoted (M2 macrophage surface markers, flow cytometry)” value was around 0.05 µM. Also, in assay [3] (cytokine analysis (MSD), day 14 supernatant), the “concentration showing remarkable promotion of MDC expression” value was found to be 0.1 µM.

The record behind these values is patent US20250262209A1, “TREATMENT OF GASTROINTESTINAL DISEASES” (Aclipse Two, Inc., priority 2022, published 2025).
